Tests used:
Type in all cases: cell-based
E. coli BL21 = assay: MIC against Gram-negative bacteria: E. coli BL21; settings: 5×10^5 CFU/mL
Procedure, shortened: (§1)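 Inocula prepared by growing LB cultures at 37° C to 0.5 McFarland, centrifuging at 4000×g, and resuspending in fresh medium. Final density 5×10^5 CFU/mL per well with two-fold dilutions of purified EGF domain protein; shaking incubation at 37° C.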

Pseudomonas aeruginosa = assay: MIC against Gram-negative bacteria: Pseudomonas aeruginosa; settings: 5×10^5 CFU/mL
Procedure, shortened: as §1

Klebsiella pneumonia = assay: MIC against Gram-negative bacteria: Klebsiella pneumonia; settings: 5×10^5 CFU/mL
Procedure, shortened: as §1

Proteus vulgaris = assay: MIC against Gram-negative bacteria: Proteus vulgaris; settings: 5×10^5 CFU/mL
Procedure, shortened: as §1

Aeromonas hydrophila = assay: MIC against Gram-negative bacteria: Aeromonas hydrophila; settings: 5×10^5 CFU/mL
Procedure, shortened: as §1

Enterobacter cloacae = assay: MIC against Gram-negative bacteria: Enterobacter cloacae; settings: 5×10^5 CFU/mL
Procedure, shortened: as §1

Citrobacter diversus = assay: MIC against Gram-negative bacteria: Citrobacter diversus; settings: 5×10^5 CFU/mL
Procedure, shortened: as §1

Serratia marcescens = assay: MIC against Gram-negative bacteria: Serratia marcescens; settings: 5×10^5 CFU/mL
Procedure, shortened: as §1

Moraxella catarrhalis = assay: MIC against Gram-negative bacteria: Moraxella catarrhalis; settings: 5×10^5 CFU/mL
Procedure, shortened: as §1

Proteus mirabilis = assay: MIC against Gram-negative bacteria: Proteus mirabilis; settings: 5×10^5 CFU/mL
Procedure, shortened: as §1

E. coli DH5α = assay: Antibacterial activity: MIC and growth curve against E. coli DH5α in 96-well plate; settings: minimal inhibitory concentration against E. coli DH5α; 96-well plate, 5×10^5 CFU/mL, 37° C., judged after 8 h
Procedure, shortened: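 Log-phase DH5α (OD600 about 0.5, 37° C, 185 rpm in LB) was pelleted, resuspended in fresh LB and seeded at 5×10^5 CFU/mL with recombinant protein at 50, 25 and 12.5 μg/mL (two-fold series), in triplicate. Plates were shaken at 175 rpm, 37° C, and OD600 was read every 30 min. MIC was the lowest concentration with no growth.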

[1] = 10 h cultivation at 37° C., two-fold serial dilution
[2] = E. coli BL21, 96-well plate, 37° C., 10 h
[3] = Pseudomonas aeruginosa, 96-well plate, 37° C., 10 h
[4] = Klebsiella pneumonia, 96-well plate, 37° C., 10 h
[5] = Proteus vulgaris, 96-well plate, 37° C., 10 h
[6] = Aeromonas hydrophila, 96-well plate, 37° C., 10 h
[7] = Enterobacter cloacae, 96-well plate, 37° C., 10 h
[8] = Citrobacter diversus, 96-well plate, 37° C., 10 h
[9] = Serratia marcescens, 96-well plate, 37° C., 10 h
[10] = Moraxella catarrhalis, 96-well plate, 37° C., 10 h
[11] = Proteus mirabilis, 96-well plate, 37° C., 10 h
[12] = E. coli BL21, 10 h cultivation at 37° C.

PRT475 (VQNTCKDNPCGRGQCLITQSPPYYRCVCKHPYTGPSCS; listed as Homo sapiens)
25 µg/mL: MIC against K. pneumonia (Klebsiella pneumonia; 96-well plate, 37° C., 10 h) | MIC against A. hydrophila (Aeromonas hydrophila; 96-well plate, 37° C., 10 h) | MIC against E. cloacae (Enterobacter cloacae; 96-well plate, 37° C., 10 h) | MIC against C. diversus (Citrobacter diversus; 96-well plate, 37° C., 10 h)
12.5 µg/mL: MIC against E. coli BL21 (E. coli BL21; 96-well plate, 37° C., 10 h) | MIC against P. vulgaris (Proteus vulgaris; 96-well plate, 37° C., 10 h) | MIC against M. catarrhalis (Moraxella catarrhalis; 96-well plate, 37° C., 10 h)
50 µg/mL: MIC against P. aeruginosa (Pseudomonas aeruginosa; 96-well plate, 37° C., 10 h) | MIC against S. marcescens (Serratia marcescens; 96-well plate, 37° C., 10 h) | MIC against P. mirabilis (Proteus mirabilis; 96-well plate, 37° C., 10 h) | MIC (E. coli DH5α)

PRT1169 (RDSQCDEATCNNGGTCYDEGDAFKCMCPGGWEGTTCN; listed as Homo sapiens)
50 µg/mL: MIC P. aeruginosa (Pseudomonas aeruginosa; [1]) | MIC C. diversus (Citrobacter diversus; [1]) | MIC (E. coli DH5α)
25 µg/mL: MIC E. coli BL21 (E. coli BL21; [1]) | MIC K. pneumonia (Klebsiella pneumonia; [1])
12.5 µg/mL: MIC P. vulgaris (Proteus vulgaris; [1]) | MIC A. hydrophila (Aeromonas hydrophila; [1]) | MIC E. cloacae (Enterobacter cloacae; [1]) | MIC S. marcescens (Serratia marcescens; [1]) | MIC M. catarrhalis (Moraxella catarrhalis; [1]) | MIC P. mirabilis (Proteus mirabilis; [1])

PRT1338 (EMDPCTGLTPGGCSRNAECIKTGTGTHTCVCQQGWTGNGRDCS; listed as Homo sapiens)
25 µg/mL: MIC against E. coli BL21 (E. coli BL21; [2]) | MIC against K. pneumonia (Klebsiella pneumonia; [4]) | MIC against S. marcescens (Serratia marcescens; [9])
12.5 µg/mL: MIC against P. aeruginosa (Pseudomonas aeruginosa; [3]) | MIC against P. vulgaris (Proteus vulgaris; [5]) | MIC against A. hydrophila (Aeromonas hydrophila; [6]) | MIC against C. diversus (Citrobacter diversus; [8]) | MIC against M. catarrhalis (Moraxella catarrhalis; [10]) | MIC against P. mirabilis (Proteus mirabilis; [11])
50 µg/mL: MIC against E. cloacae (Enterobacter cloacae; [7]) | MIC (E. coli DH5α)

PRT1328 (LINVCLTKNGGCSEFAICNHTGQVERTCTCKPNYIGDGFT; listed as Homo sapiens)
50 µg/mL: MIC against P. aeruginosa (Pseudomonas aeruginosa; [3]) | MIC against E. cloacae (Enterobacter cloacae; [7]) | MIC against S. marcescens (Serratia marcescens; [9]) | MIC against P. mirabilis (Proteus mirabilis; [11])
12.5 µg/mL: MIC against E. coli BL21 (E. coli BL21; [2]) | MIC against K. pneumonia (Klebsiella pneumonia; [4]) | MIC against P. vulgaris (Proteus vulgaris; [5]) | MIC against C. diversus (Citrobacter diversus; [8]) | MIC (E. coli DH5α)
25 µg/mL: MIC against A. hydrophila (Aeromonas hydrophila; [6]) | MIC against M. catarrhalis (Moraxella catarrhalis; [10])

PRT1424 (CQMFCNQTACPADCDPNTQASCECPEGYILDDGFICT; listed as Homo sapiens)
50 µg/mL: MIC against P. aeruginosa (Pseudomonas aeruginosa; Pseudomonas aeruginosa, 10 h cultivation at 37° C.) | MIC against E. cloacae (Enterobacter cloacae; Enterobacter cloacae, 10 h cultivation at 37° C.) | MIC against M. catarrhalis (Moraxella catarrhalis; Moraxella catarrhalis, 10 h cultivation at 37° C.) | MIC (E. coli DH5α)
12.5 µg/mL: MIC against E. coli BL21 (E. coli BL21; [12]) | MIC against K. pneumonia (Klebsiella pneumonia; Klebsiella pneumonia, 10 h cultivation at 37° C.) | MIC against P. vulgaris (Proteus vulgaris; Proteus vulgaris, 10 h cultivation at 37° C.) | MIC against A. hydrophila (Aeromonas hydrophila; Aeromonas hydrophila, 10 h cultivation at 37° C.)
25 µg/mL: MIC against C. diversus (Citrobacter diversus; Citrobacter diversus, 10 h cultivation at 37° C.) | MIC against S. marcescens (Serratia marcescens; Serratia marcescens, 10 h cultivation at 37° C.) | MIC against P. mirabilis (Proteus mirabilis; Proteus mirabilis, 10 h cultivation at 37° C.)

PRT865 (CSCHPVGSAVLPANSVTFCDPSNGDCPCKPGVAGRRCDRCMVGYWGFGDYGCRP; listed as Homo sapiens)
12.5 µg/mL: MIC (μg/mL) E. coli BL21 (E. coli BL21; [12]) | MIC (μg/mL) P. vulgaris (Proteus vulgaris; P. vulgaris, 10 h cultivation at 37° C.) | MIC (μg/mL) E. cloacae (Enterobacter cloacae; E. cloacae, 10 h cultivation at 37° C.) | MIC (μg/mL) C. diversus (Citrobacter diversus; C. diversus, 10 h cultivation at 37° C.) | MIC (μg/mL) S. marcescens (Serratia marcescens; S. marcescens, 10 h cultivation at 37° C.)
50 µg/mL: MIC (μg/mL) K. pneumonia (Klebsiella pneumonia; K. pneumonia, 10 h cultivation at 37° C.) | MIC (μg/mL) A. hydrophila (Aeromonas hydrophila; A. hydrophila, 10 h cultivation at 37° C.) | MIC (μg/mL) M. catarrhalis (Moraxella catarrhalis; M. catarrhalis, 10 h cultivation at 37° C.)
25 µg/mL: MIC (μg/mL) P. aeruginosa (Pseudomonas aeruginosa; P. aeruginosa, 10 h cultivation at 37° C.) | MIC (μg/mL) P. mirabilis (Proteus mirabilis; P. mirabilis, 10 h cultivation at 37° C.) | MIC (E. coli DH5α)

Source: US9833497B2, “Human originated EGF domain proteins and use of the same” (CHENGDU SOURCEBIO LIMITED-LIABILITY COMPANY, priority 2013, dated 2017)
